# Assay results published in patent publication US20120016014A1, “BENZOTHIOPHENE CARBOXAMIDE COMPOUNDS, COMPOSITION AND APPLICATIONS THEREOF” (INDIAN INSTITUTE OF SCIENCE, priority 2010, published 2012).
# Experiments:
# [1] = tested on: hepatic cell stages of P. berghei; assay: Inhibition of hepatic cell stages (EEFs) of P. berghei; type: cell-based
# HepG2 cells = assay: Toxicity to HepG2 cells; type: cell-based; details: one day treatment
# [2] = Mechanical hyperalgesia, Randall-Selitto, carrageenan induced; type: in vivo, rats; details: 15 mg/kg b wt., after 1 hrs, basal level in 5 hrs
# Description: Mechanical hyperalgesia was measured as hind limb withdrawal threshold in response to a mechanical stimulus applied to hind paws of rat using Randall-selitto meter, Randall and Selitto, 1957. To determine the mechanical hyperalgesia, the force was applied with increased pressure at a constant rate until the animal withdrew its limb. The base line nociceptive threshold was measured before induction of hyperalgesia. Moreover, hyperalgesia was induced by carrageenan and then groups of animal were treated with compound 4, compound 6 and compound 8 (15 mg/kg body weight) and Ibuprofen (50 mg/kg body weight). Control group was treated with physiological saline. […] The anti-nociceptive efficacy of the compounds has been evaluated the efficacy with paw withdrawal threshold latency of animals.
# purified PfENR [3] = molecular target: T1, purified PfENR (Plasmodium falciparum, UniProt Q9BH77); assay: PfENR inhibition kinetics, cofactor potency and progress curve analysis; type: biochemical
# T1 sequence (Q9BH77 22-432): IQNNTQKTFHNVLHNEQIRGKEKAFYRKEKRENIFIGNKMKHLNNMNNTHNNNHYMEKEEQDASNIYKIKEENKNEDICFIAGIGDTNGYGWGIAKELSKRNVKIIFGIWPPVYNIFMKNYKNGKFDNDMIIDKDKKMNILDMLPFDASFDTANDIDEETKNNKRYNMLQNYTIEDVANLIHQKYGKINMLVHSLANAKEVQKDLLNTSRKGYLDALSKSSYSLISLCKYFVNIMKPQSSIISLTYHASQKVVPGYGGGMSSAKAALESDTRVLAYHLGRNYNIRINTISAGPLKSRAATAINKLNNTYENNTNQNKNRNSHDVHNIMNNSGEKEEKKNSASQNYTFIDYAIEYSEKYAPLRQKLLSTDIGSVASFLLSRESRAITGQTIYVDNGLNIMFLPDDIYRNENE
# Description: (§1) PfENR activity was determined using standard assay described earlier.
# The accumulation of product further decreased when compound 6 was preincubated with the enzyme (curve c). On addition of NAD+ to this reaction the rate of product accumulation further decreased (curve d).
# Progress curves for inhibition by varying concentrations of compounds 6 and 7 were examined in detail (FIGS. 16a and 16b). From the progress curve analyses, it was inferred that for each concentration of the inhibitors the initial and the steady state velocity decreased exponentially with time. At higher inhibitor concentration, steady state is reached rapidly with a decrease in steady state velocity (vs). […] Progress curves were analysed using equation 3a from which a series of Kobs values were obtained for each concentration of inhibitor.
# [4] = tested on: Plasmodium falciparum 3D7; assay: In vitro inhibition of P. falciparum 3D7 blood-stage parasites; type: cell-based
# Description: Benzothiophene carboxamide derivatives of the present invention were checked for their anti-parasitic activity against 3D7 (chloroquine sensitive strain) in an in vitro culture. […] To find out parasite stage where these compounds act, synchronised ring stage culture of P. falciparum was treated with 2.5 μM concentration of compounds 6 and 7. […] When compounds 6 and 7 were added at the trophozoite stage the cells could not proceed to the schizont stage indicating the growth inhibition occurs at trophozoite stage.
# Synchronised culture of P. falciparum 3D7 was treated with 2.5 μM compound 10 and 11 at the ring stage.
# [5] = Hot plate latency test (thermal hyperalgesia); type: in vivo, rats
# Description: The animals were housed in an animal house facility of National Institute of Immunology, India, with controlled temperature (22±2° C.) under a 12/12 h light/dark cycle. They had free access to food and water ad libitum. All experiments were conducted according to the guidelines of the international association for the study of pain and approved by the institutional ethical committee for animal research. All in vivo experiments were carried out on inbred male […] rats ( 200-320 g body weight). Same age and equal body weight of animals were used according to experiments. No animals were used for more than one experiment. Most popular non-steroidal anti-inflammatory drugs which are widely use for treatment of chronic and inflammatory pain, such as Ibuprofen, Naproxen, Ketoprofen, Aspirin, Nimesulide, Indomethacine were purchased from Cayman Chemicals, USA and used to evaluate the efficacy of drugs in animal model. These drugs and different derivatives of Benzothiophene were dissolved in minimum volume of Dimethyl sulfoxide (DMSO) and further diluted in Phosphate buffer saline prior to use. […] Withdrawal latency for tail flicking was measured. […] NSAIDs is commonly evaluated by hot plate latency assay whereby animals are exposed to thermal stimulus (54 degree […] time for hind paw licking is measured as behavioural response for pain.
# Tail flick latency test = details: 15 mg/kg b. wt. vs Ibuprofen 50 mg/kg b. wt., 30 min and 60 min post injection
# Description: Hot plate latency test was performed under red light on the metal surface of hot plate analgesia meter (IITC, Life science, CA). Animals were placed individually on the surface of hot plate maintained at a constant temperature 54±1° C. The anti-nociceptive response was latency recorded from the time when animal was placed on the heated surface until the behavior response show licking of hind paw to avoid thermal nociception. A maximum hot plate latency of 30 sec was used for each animal to prevent paw tissue damage. Base line nociceptive latency was obtained for each animal prior to any drug administration. Thereafter, groups of animals were treated with different concentration of different derivatives of benzothiophene and well known NSAIDs. […] Subsequent nociceptive response latency for each animal was determined at 30 and 60 min after drug administration. […] In continuation of tail flick latency assay, the anti-nociceptive effect of the compounds was monitored. Rats treated as described above were subjected to determination of thermal nociceptive pain. Rats were confined in restrainer and allowed to accommodate. The tail withdrawal test consisted of immersing the posterior 8-10 cm of the tail in hot water bath maintained at 54±1° C. Withdrawal latency for tail flicking was measured. A maximum tail flick latency of 20 sec was permitted to minimize tissue damage.
# [6] = tested on: blood-stage P. berghei ANKA; assay: Experimental cerebral malaria in C57BL/6 mice; type: in vivo; details: for Mean Survival Days (Observed for 25 days): 5 mg/kg body weight daily for six days
# Description: C57BL/6 mice were infected with blood-stage P. berghei ANKA as discussed in the experimental section. After 24 hours of infection mice were treated intravenously with various doses of inhibitors. It was observed that all control mice developed hypothermia by day 2, ataxia and convulsions by day 3 and died by day 6, whereas inhibitor treated groups had considerably higher longevity (11-24 days). Though each group of mice developed hypothermia by day 4, convulsions and ataxia development were delayed in case of treated mice. […] The mice treated with 2.5 mg/kg body weight survived for 18 days. Even at or below 1 mg/kg body weight of inhibitor dose, the mice survived for 11 days, but paralysis and ataxia development occurred on Day 7.
# […]. The mice were treated for 6 days. […]. Chloroquine was used as the control drug. […].
# Therefore, compounds 10 and 11 were also administered at 5 mg/Kg body weight. The compounds were administered through intraperitoneal, peroral, subcutaneous and intravenous routes. Compound 10 and 11 were administered once daily for 6 days. […]. The mean survival days for this treatment group was 16 (FIG. 12c and Table III). […]. Chloroquine was used as the control drug.
# purified PfENR [7] = molecular target: T1, purified PfENR; assay: PfENR inhibition, standard enzyme assay; type: biochemical; details: read-out: Inhibition of PfENR (IC50 μM)
# Description: as §1
compound,measurement,setting,value
"O=C(NCc1ccc(F)cc1)c1sc2ccccc2c1Br [Compound 6, N-(4-fluorobenzyl)-3-bromobenzo[b]thiophene-2-carboxamide]",IC50,"[1]; Plasmodium berghei, 48 h, hepatic cell stages of P. berghei, two days treatment",51 µM
same,Therapeutic Index (TI) [=TC50/IC50],[1]; TC50 HepG2 / IC50 EEFs,39.0 ± 4
same,TC50 for HepG2 cells,HepG2 cells,2000 ± 200 µM
same,"Mechanical hyperalgesia, paw withdrawal threshold",[2],significantly reversed the mechanical hyperalgesia
same,Effect of NAD+ on binding to PfENR (cofactor potency assay),purified PfENR [3]; 10 μM NAD+ added to preincubated mixture,potentiate the binding
same,Inhibition kinetics with respect to NADH,"purified PfENR [3]; Dixon plot, cofactor NADH",competitive kinetics with NADH
same,Inhibition kinetics with respect to crotonoyl CoA,"purified PfENR [3]; Dixon plot, substrate crotonoyl CoA",uncompetitive against crotonoyl CoA
same,Binding behaviour from progress curves,purified PfENR [3]; inhibitor 0-750 nM,slow tight binding behaviour
same,Isomerization rate constant (k5 * 10^−2) (s^−1),"purified PfENR [3]; purified PfENR, progress curves",1.19 ± .045 10^−2 s^−1
same,koff,"purified PfENR [3]; purified PfENR, progress curves, read-out: Dissociation rate constant (k6* 10^−3)",0.001 s⁻¹
same,Ki,"purified PfENR [3]; purified PfENR, read-out: Dissociation constant (Ki)",0.0489 µM
same,Stage of parasite growth arrest,"[4]; 2.5 μM, added at ring stage, P. falciparum 3D7",arrested at the trophozoite stage
same,Parasites observed to be dead,"[4]; 2.5 μM, synchronised ring stage culture of P. falciparum 3D7",~90%
same,IC50,"[4]; Erythrocyte, growth inhibition, red blood cell stages of Plasmodium falciparum 3D7 (chloroquine sensitive), read-out: P. falciparum (IC50 μM)",1 ± 0.3 µM
same,"MPE index, hot plate latency assay","[5]; 15 mg/kg b. wt. i.p., 30 and 60 min",preeminent analgesic activity compared to other compounds
same,"Analgesic activity compared with Ibuprofen, hot plate",[5]; compounds 15 mg/kg b. wt. vs Ibuprofen 50 mg/kg b. wt.,potent analgesic activity at much lower concentration than Ibuprofen
same,"Anti-nociceptive response, tail flick latency assay",Tail flick latency test,better anti-nociceptive response than the Ibuprofen
same,"Survival, dose determination","[6]; 2.5 mg/kg body weight intravenously, C57BL/6 mice",18 days
same,"Kidney and liver functions (urea, creatinine and glucose levels)",[6]; 5 mg/kg body weight,normal kidney and liver functions
same,"Survival, dose determination","[6]; 5 mg/kg body weight intravenously, C57BL/6 mice",24 days
same,"Survival, dose determination","[6]; 10 mg/kg body weight intravenously, C57BL/6 mice",20 days
same,Mean Survival Days (Observed for 25 days),"[6]; Intraperitoneal, C57BL/6 mice, 5 mg/kg",20 ± 0.9 days
same,Mean Survival Days (Observed for 25 days),"[6]; Intraperitoneal, C57BL/6 mice, listed as compound 6, 5 mg/kg",21 days
same,Mean Survival Days (Observed for 25 days),"[6]; Intravenous, C57BL/6 mice, 5 mg/kg",24 ± 2.0 days
same,Mean Survival Days (Observed for 25 days),"[6]; Intravenous, C57BL/6 mice, listed as compound 6, 5 mg/kg",24 days
same,Mean Survival Days (Observed for 25 days),"[6]; Per oral, C57BL/6 mice",12 ± 1.2 days
same,Mean Survival Days (Observed for 25 days),"[6]; Subcutaneous, C57BL/6 mice, 5 mg/kg",18 ± 1.3 days
same,Mean Survival Days (Observed for 25 days),"[6]; Subcutaneous, C57BL/6 mice, listed as compound 6, 5 mg/kg",21 days
same,"Survival, dose determination","[6]; at or below 1 mg/kg body weight intravenously, C57BL/6 mice",11 days
same,Parasitemia levels (Peter's test),"[6]; intravenous treatment, C57BL/6 mice",undetectable level by Day 18
same,Increase of longevity,"[6]; oral route, 5 mg/kg body weight, 6 days treatment",5 days
same,IC50,purified PfENR [7],0.115 ± 0.12 µM
